# According to patent US20040152126A1, “Methods of screening for cox-2 inhibitors” (priority 1999, published 2004):
# Columns and labels:
# [1] = test system: endogenous cox-2 gene (mRNA of cox-2); assay: RT-PCR analysis of the expression of cox-2 mRNA in Jurkat cells; type: cell-based, human; conditions: PMA 10 ng/ml alone or with calcium ionophore A23187 1 μM, FIG. 3(A)
# Description: In order to study the regulation of the expression of the endogenous cox-2 gene in the Jurkat cell line, the analysis of the expression of its mRNA was performed by experiments with RT-PCR. At the same time, in order to validate the prom2-1906-LUC construct and to check that the regulation of the cloned promoter is as expected, experiments were carried out of transitory transfection of the prom2-1906-LUC construct using the Jurkat cell line. In both experiments, the cells were treated with compounds that stimulate and inhibit the induction of the promoter of cox-2.
# Treatment with activator compounds were carried out using the phorbol ester PMA (Phorbol 12-Myristate 13-Acetate) (10 ng/ml) (Sigma) and the combination of PMA and Calcium ionophore A23187 (1 μM) (Sigma), hereinafter PMA+Ion.
# Treatment with drugs that inhibit the induction by PMA+Ion were carried out with cyclosporin A (CsA) (100 ng/ml) or the synthetic glucocorticoide Dexamethasone (Dex) (1 μM) (Sigma).
# The results obtained from the analysis by RT-PCR of the expression of mRNA of cox-2 in Jurkat cells are presented in FIG. 3, where the following can be observed:
# As a control in both cases, the result obtained for the non-inducible mRNAs of the cox-1 isoform and for the glycerol aldehyde phosphate dehydrogenase (GAPDH) are shown.
# cox-2 promoter = assay: Luciferase activity in stable Jurkat-1906LUC clones (Jurkat-C3-, F9-, C7-1906LUC)
# Description: The transfection was carried out by means of the technique of electroporation in cuvettes of 0.4 cm (BioRad) with 15×10^6 cells in 0.5 ml of complete medium [RMPI medium supplemented with 10% of foetal serum, L-glutamine 2mM and a mixture of antibiotics] […] After this period, the cells were electroporated in a Gene Pulser II (BioRad) apparatus at 1.500 μFaradays of capacitance and a current of 280 V. Next, the cells were incubated over ice for 10 minutes before adding 10 ml of complete medium. The cells were cultured in this medium in 75 cm^2 culture flasks (Nunc) for 48 hours in a cell incubator at 37° C. with a humidity of 95% and 5% of Co2. At this time, the medium was changed for complete medium with no antibiotics to which hygromycin (Boehringer Mannheim) was added at a concentration of 200 μg/ml. The cells were cultured in this medium for 30 days with successive changes of medium. […] For this, 1×10^6 cells were lysed in 50 μl of lysis buffer (Promega) and with the extracts obtained, the luciferase activity was determined using the reagents contained in the kit of the “Luciferase Assay System” [Promega].
# These clones were grown until obtaining at least 1×10^6 cells with which measurement of the luciferase activity could be performed as described earlier. […]
Structure (SMILES),expression of the mRNA of cox-2 [1],"increase of the basal values of luciferase activity (cox-2 promoter; three stable clones, treatment of 6 hours, FIG. 7)","inhibition of the stimulation obtained with PMA+Ion (luciferase activity) (cox-2 promoter; stable Jurkat clones, 1 hour pre-treatment with compound, then PMA+Ion for 5 hours, FIGS. 8-10)"
"CCCCCCCCCCCCCC(=O)O[C@@H]1[C@@H](C)[C@@]2(O)[C@@H](C=C(CO)C[C@]3(O)C(=O)C(C)=C[C@@H]23)[C@@H]2C(C)(C)[C@]12OC(C)=O [PMA, Phorbol 12-Myristate 13-Acetate]",slight increase,3 to 6 times,
Oc1ccc(C=Cc2cc(O)cc(O)c2)cc1 [Resveratrol],,,produces an inhibition of the stimulation obtained with PMA+Ion
